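Here, GI50 denotes the concentration required for 50% inhibition of growth. TGI denotes the concentration required for complete inhibition of growth.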
What was measured:
Experiment in all cases: DTP human tumour cell line panel, 384-well format
OVCAR-5 ovarian = test system: OVCAR-5 ovarian
NCI-H460 NSCLC = test system: NCI-H460 NSCLC
OVCAR-4 ovarian = test system: OVCAR-4 ovarian
MCF7 breast = test system: MCF7 breast
HL-60(TB) leukemia = test system: HL-60(TB) leukemia
NCI/ADR-RES ovarian = test system: NCI/ADR-RES ovarian
SK-MEL-28 melanoma = test system: SK-MEL-28 melanoma
HCT-15 colon = test system: HCT-15 colon
NCI-H226 lung = test system: NCI-H226 lung
HCC-2998 colon = test system: HCC-2998 colon
HT29 colon = test system: HT29 colon
CAKI-1 renal = test system: CAKI-1 renal
SW-620 colon = test system: SW-620 colon
NCI-H522 lung = test system: NCI-H522 lung
CCRF-CEM leukemia = test system: CCRF-CEM leukemia
TK-10 renal = test system: TK-10 renal
SK-OV-3 ovarian = test system: SK-OV-3 ovarian
MDA-MB-435 melanoma = test system: MDA-MB-435 melanoma
SF-295 CNS = test system: SF-295 CNS
EKVX NSCLC = test system: EKVX NSCLC
A498 renal = test system: A498 renal
MDA-MB-468 breast = test system: MDA-MB-468 breast
OVCAR-3 ovarian = test system: OVCAR-3 ovarian
HOP-92 NSCLC = test system: HOP-92 NSCLC
UACC-62 melanoma = test system: UACC-62 melanoma
MALME-3M melanoma = test system: MALME-3M melanoma
SN12C renal = test system: SN12C renal
M14 melanoma = test system: M14 melanoma
HOP-62 NSCLC = test system: HOP-62 NSCLC
HCT-116 colon = test system: HCT-116 colon
K-562 leukemia = test system: K-562 leukemia
UACC-257 melanoma = test system: UACC-257 melanoma
IGROV1 ovarian = test system: IGROV1 ovarian
HS 578T breast = test system: HS 578T breast
SF-268 CNS = test system: SF-268 CNS
MDA-MB-231 breast = test system: MDA-MB-231 breast
A549 NSCLC = test system: A549 NSCLC
MOLT-4 leukemia = test system: MOLT-4 leukemia
RPMI-8226 leukemia = test system: RPMI-8226 leukemia
PC-3 prostate = test system: PC-3 prostate
U251 glioblastoma = test system: U251 glioblastoma
NCI-H23 lung = test system: NCI-H23 lung
DU-145 prostate = test system: DU-145 prostate
LOX IMVI melanoma = test system: LOX IMVI melanoma
SNB-19 CNS = test system: SNB-19 CNS
SNB-75 CNS = test system: SNB-75 CNS
COLO 205 colon = test system: COLO 205 colon
BT-549 breast = test system: BT-549 breast
RXF 393 renal = test system: RXF 393 renal
SK-MEL-5 melanoma = test system: SK-MEL-5 melanoma
NCI-H322M lung = test system: NCI-H322M lung
SF-539 CNS = test system: SF-539 CNS
786-0 renal = test system: 786-0 renal
KM12 colon = test system: KM12 colon
SR leukemia = test system: SR leukemia
SK-MEL-2 melanoma = test system: SK-MEL-2 melanoma
T-47D breast = test system: T-47D breast
OVCAR-8 ovarian = test system: OVCAR-8 ovarian
ACHN renal = test system: ACHN renal
UO-31 renal = test system: UO-31 renal

## Nc1ccn([C@@H]2C(F)=C(CO)[C@@H](O)[C@H]2O)c(=O)n1
OVCAR-5 ovarian
  GI50: 1020 nM
  TGI: > 28300 nM
NCI-H460 NSCLC
  GI50: 361 nM
  TGI: 5460 nM
OVCAR-4 ovarian
  GI50: 23500 nM
  TGI: > 100000 nM
MCF7 breast
  GI50: 1020 nM
  TGI: > 100000 nM
HL-60(TB) leukemia
  GI50: 374 nM
  TGI: 979 nM
NCI/ADR-RES ovarian
  GI50: 882 nM
  TGI: 4300 nM
SK-MEL-28 melanoma
  GI50: 1250 nM
  TGI: > 100000 nM
HCT-15 colon
  GI50: 1090 nM
  TGI: > 100000 nM
NCI-H226 lung
  GI50: 13500 nM
  TGI: > 100000 nM
HCC-2998 colon
  GI50: 1710 nM
  TGI: > 100000 nM
HT29 colon
  GI50: 922 nM
  TGI: > 42700 nM
CAKI-1 renal
  GI50: 383 nM
SW-620 colon
  GI50: 893 nM
  TGI: > 50700 nM
NCI-H522 lung
  GI50: 539 nM
  TGI: 57300 nM
CCRF-CEM leukemia
  GI50: 825 nM
  TGI: 2590 nM
TK-10 renal
  GI50: 689 nM
  TGI: > 100000 nM
SK-OV-3 ovarian
  GI50: 5570 nM
  TGI: > 59600 nM
MDA-MB-435 melanoma
  GI50: 967 nM
  TGI: > 100000 nM
SF-295 CNS
  GI50: 2840 nM
  TGI: > 92800 nM
EKVX NSCLC
  GI50: 33500 nM
  TGI: > 100000 nM
A498 renal
  GI50: 1510 nM
  TGI: 13600 nM
MDA-MB-468 breast
  GI50: 38400 nM
  TGI: > 100000 nM
OVCAR-3 ovarian
  GI50: 4470 nM
  TGI: > 100000 nM
HOP-92 NSCLC
  GI50: 745 nM
  TGI: 5650 nM
UACC-62 melanoma
  GI50: 3870 nM
  TGI: > 100000 nM
MALME-3M melanoma
  GI50: 4430 nM
  TGI: > 100000 nM
SN12C renal
  GI50: 500 nM
  TGI: 4900 nM
M14 melanoma
  GI50: 763 nM
  TGI: > 21200 nM
HOP-62 NSCLC
  GI50: 1260 nM
  TGI: 31500 nM
HCT-116 colon
  GI50: 409 nM
  TGI: 21400 nM
K-562 leukemia
  GI50: 474 nM
  TGI: > 100000 nM
UACC-257 melanoma
  GI50: 28200 nM
  TGI: > 96500 nM
IGROV1 ovarian
  GI50: 3950 nM
  TGI: > 100000 nM
HS 578T breast
  GI50: 13400 nM
  TGI: > 100000 nM
SF-268 CNS
  GI50: 2700 nM
  TGI: > 100000 nM
MDA-MB-231 breast
  GI50: 1320 nM
  TGI: > 93800 nM
A549 NSCLC
  GI50: 461 nM
  TGI: > 35600 nM
MOLT-4 leukemia
  GI50: 182 nM
  TGI: 338 nM
RPMI-8226 leukemia
  GI50: 292 nM
  TGI: 922 nM
PC-3 prostate
  GI50: 5230 nM
  TGI: > 78700 nM
U251 glioblastoma
  GI50: 2780 nM
  TGI: > 100000 nM
NCI-H23 lung
  GI50: 3070 nM
  TGI: 13100 nM
DU-145 prostate
  GI50: 396 nM
  TGI: 1810 nM
LOX IMVI melanoma
  GI50: 791 nM
  TGI: 12000 nM
SNB-19 CNS
  GI50: 3370 nM
  TGI: > 100000 nM
SNB-75 CNS
  GI50: 12300 nM
  TGI: > 100000 nM
COLO 205 colon
  GI50: 775 nM
  TGI: 3960 nM
BT-549 breast
  GI50: 25400 nM
  TGI: > 100000 nM
RXF 393 renal
  GI50: 2340 nM
  TGI: > 72100 nM
SK-MEL-5 melanoma
  GI50: 7700 nM
  TGI: 68500 nM
NCI-H322M lung
  GI50: 5740 nM
  TGI: > 100000 nM
SF-539 CNS
  GI50: 1610 nM
  TGI: > 100000 nM
786-0 renal
  GI50: 1090 nM
  TGI: > 100000 nM
KM12 colon
  GI50: 2140 nM
  TGI: > 100000 nM
SR leukemia
  GI50: 183 nM
  TGI: 344 nM
SK-MEL-2 melanoma
  GI50: 19800 nM
  TGI: > 100000 nM
T-47D breast
  GI50: 10700 nM
  TGI: > 100000 nM
OVCAR-8 ovarian
  GI50: 704 nM
  TGI: > 23900 nM
ACHN renal
  GI50: 923 nM
  TGI: > 73100 nM

## CN(C)C/C=C/C(=O)Nc1ccc(C(=O)N2CCC[C@@H](Nc3ncc(Cl)c(-c4c[nH]c5ccccc45)n3)C2)cc1
NCI-H460 NSCLC
  GI50: 184 nM
  TGI: 424 nM
MCF7 breast
  GI50: 26.6 nM
  TGI: 1290 nM
HL-60(TB) leukemia
  GI50: 22.7 nM
  TGI: 37.4 nM
SK-MEL-28 melanoma
  GI50: 20.8 nM
  TGI: 48 nM
HCT-15 colon
  GI50: 3050 nM
  TGI: 9820 nM
HCC-2998 colon
  GI50: 17.8 nM
  TGI: 38.1 nM
HT29 colon
  GI50: 165 nM
  TGI: 478 nM
SW-620 colon
  GI50: 71.4 nM
  TGI: 410 nM
NCI-H522 lung
  GI50: 19 nM
  TGI: 36.3 nM
CCRF-CEM leukemia
  GI50: 28 nM
  TGI: 74.5 nM
TK-10 renal
  GI50: 389 nM
  TGI: 14700 nM
SK-OV-3 ovarian
  GI50: 38.6 nM
  TGI: 352 nM
MDA-MB-435 melanoma
  GI50: 27 nM
  TGI: 90.4 nM
SF-295 CNS
  GI50: 274 nM
  TGI: 767 nM
UO-31 renal
  GI50: 2190 nM
  TGI: 5380 nM
MDA-MB-468 breast
  GI50: 17.7 nM
  TGI: 33.7 nM
OVCAR-3 ovarian
  GI50: 18 nM
  TGI: 38.2 nM
UACC-62 melanoma
  GI50: 92.7 nM
  TGI: 321 nM
MALME-3M melanoma
  GI50: 19.6 nM
  TGI: 39.4 nM
SN12C renal
  GI50: 46.8 nM
  TGI: 222 nM
M14 melanoma
  GI50: 106 nM
  TGI: 279 nM
HOP-62 NSCLC
  GI50: 159 nM
  TGI: 581 nM
HCT-116 colon
  GI50: 31 nM
  TGI: 1170 nM
K-562 leukemia
  GI50: 39.7 nM
  TGI: 840 nM
UACC-257 melanoma
  GI50: 41.9 nM
  TGI: 197 nM
IGROV1 ovarian
  GI50: 22.9 nM
  TGI: 69.5 nM
SF-268 CNS
  GI50: 20.5 nM
  TGI: 44.7 nM
MDA-MB-231 breast
  GI50: 25.4 nM
  TGI: 72.3 nM
A549 NSCLC
  GI50: 294 nM
  TGI: 967 nM
MOLT-4 leukemia
  GI50: 21.6 nM
  TGI: 42.9 nM
RPMI-8226 leukemia
  GI50: 151 nM
  TGI: 285 nM
PC-3 prostate
  GI50: 46.3 nM
  TGI: 371 nM
U251 glioblastoma
  GI50: 48.2 nM
  TGI: 399 nM
NCI-H23 lung
  GI50: 27.4 nM
  TGI: 117 nM
LOX IMVI melanoma
  GI50: 25.6 nM
  TGI: 48 nM
SNB-19 CNS
  GI50: 33.3 nM
  TGI: 1420 nM
COLO 205 colon
  GI50: 19 nM
  TGI: 42.9 nM
BT-549 breast
  GI50: 16.4 nM
  TGI: 37.6 nM
RXF 393 renal
  GI50: 24.5 nM
  TGI: 77.7 nM
SK-MEL-5 melanoma
  GI50: 28.3 nM
  TGI: 135 nM
NCI-H322M lung
  GI50: 27.4 nM
  TGI: 67.8 nM
SF-539 CNS
  GI50: 20.1 nM
  TGI: 43.6 nM
786-0 renal
  GI50: 241 nM
  TGI: 683 nM
KM12 colon
  GI50: 34.7 nM
  TGI: 160 nM
SR leukemia
  GI50: 16.4 nM
  TGI: 30.3 nM
SK-MEL-2 melanoma
  GI50: 19.9 nM
  TGI: 48.8 nM
OVCAR-8 ovarian
  GI50: 149 nM
  TGI: 398 nM
ACHN renal
  GI50: 1890 nM
  TGI: 11200 nM

— PubChem BioAssay (NCI)
